Tests used:
[1] = Inhibition of human synovial group2 sPLA2 at 10 uM by liquid scintillation counting
[2] = Inhibition of rat air pouch group2 sPLA2 at 10 uM by liquid scintillation counting
[3] = Inhibition of Naja naja venom group1 sPLA2 at 10 uM by liquid scintillation counting
[4] = Inhibition of bee venom group3 sPLA2 at 10 uM by liquid scintillation counting

SMILES	inhibition [1]	inhibition [2]	IC50 [3]	IC50 [4]
C[C@H]1CC[C@@]23C[C@]2(C)CCC[C@@H]3[C@@]1(C)CCC1=CC[C@H](C2=CC(=O)O[C@H]2O)OC1 [cacospongionolide]	90.7%	21.8%	3.5 µM	–
C=C1CCC[C@H]2[C@](C)(CCC3=CCC(C4=CC(=O)OC4O)OC3)[C@H](C)CC[C@]12C (stereo partly drawn) [CACOSPONGIONOLIDE B]	86.7%	36.9%	–	35.4 µM
CC1=C(CC/C(C)=C/CCC2=CC[C@H](C3=CC(=O)O[C@H]3O)O[C@H]2O)C(C)(C)CCC1 [5-Hydroxy-4-{(R)-6-hydroxy-5-[(E)-4-methyl-6-(2,6,6-trimethyl-cyclohex-1-enyl)-hex-3-enyl]-3,6-dihydro-2H-pyran-2-yl}-5H-furan-2-one]	93.2%	38.4%	17 µM	62.5 µM
CC1=CCC[C@@H]2[C@@](C)(CCC3=CC[C@H](C4=CC(=O)O[C@H]4O)OC3)[C@@H](C)CC[C@@]12C [cacospongionolide E]	96.7%	65.1%	–	94.8 µM
